13 compounds from patent US9856279B2 (AGIOS PHARMACEUTICALS, INC, priority 2011, dated 2018) can be followed below.

Each structure is given as a SMILES string. pIC50: −log10 of the molar value.

Chain of IDH1 R132H (O75874 whole entry R132H): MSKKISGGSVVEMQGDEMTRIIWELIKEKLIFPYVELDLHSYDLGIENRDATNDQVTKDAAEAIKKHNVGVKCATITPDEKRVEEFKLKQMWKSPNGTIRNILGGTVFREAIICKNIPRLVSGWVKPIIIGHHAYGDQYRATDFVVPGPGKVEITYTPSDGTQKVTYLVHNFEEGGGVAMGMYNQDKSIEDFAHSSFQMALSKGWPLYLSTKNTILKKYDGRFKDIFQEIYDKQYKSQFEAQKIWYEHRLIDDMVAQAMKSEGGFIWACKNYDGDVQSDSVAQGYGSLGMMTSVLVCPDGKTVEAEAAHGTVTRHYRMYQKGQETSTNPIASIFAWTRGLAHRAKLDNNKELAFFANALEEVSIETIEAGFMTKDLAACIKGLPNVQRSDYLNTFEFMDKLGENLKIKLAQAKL

The first test concerns the target IDH1 R132H (Homo sapiens, UniProt O75874, R132H). Kind of test: Assay for IDH1 R132H inhibitors (NADPH/aKG, resazurin detection). As to conditions: Table 3; enzyme assay, 50 minutes at room temperature; read-out: IC50 (IDH1 R132H Inhibition). It is filed as biochemical. Put shortly:
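Read-out is resorufin fluorescence (Ex544/Em590) 5 min after adding a 30 μM resazurin detection mix. Before that, mutant enzyme (0.2 μg/ml in its mix) ran 50 min at room temperature with compound, 8 uM NADPH and 2 mM aKG (mix levels) in Tris pH 7.5 with NaCl, MgCl2, BSA.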
A general note: Resazurin is reduced to fluorescent resorufin, in cell work by metabolically active cells.
For `Cc1ccc(-c2cc(C#N)c(N3CCN(C(=O)c4ccoc4C)[C@H](C)C3)nc2C(C)C)cc1` [Compound 182, (R)-6-isopropyl-2-(3-methyl-4-(2-methylfuran-3-carbonyl)piperazin-1-yl)-5-p-tolylnicotinonitrile], the pIC50 (commonly the negative decadic logarithm of the IC50, by convention in mol/L) was not below 6.00. For the compound `COCCC(=O)N1CCN(c2nc(C(C)C)c(-c3ccoc3)cc2C#N)C[C@H]1C` [Compound 205, (R)-5-(furan-3-yl)-6-isopropyl-2-(4-(3-methoxypropanoyl)-3-methylpiperazin-1-yl)nicotinonitrile], the pIC50 was 5.30 to 6.00. Still for that read-out and setting: the value for `CC(C)c1nc(N2CCN(C(=O)c3ccoc3)[C@H](C(C)C)C2)c(C#N)cc1-c1ccccc1` [Compound 170, (R)-2-(4-(furan-3-carbonyl)-3-isopropylpiperazin-1-yl)-6-isopropyl-5-phenylnicotinonitrile] was 5.30 to 6.00.

Staying with this test, now noted: enzyme assay of Example 12; read-out: IDH1R132H IC50.
Regarding `COCCC(=O)N1CCN(c2nc(C3CC3)c(-c3ccnc(OS(=O)(=O)C(F)(F)F)c3)cc2C#N)C[C@H]1C` [Compound 779, (R)-5-cyano-2-cyclopropyl-6-(4-(3-methoxypropanoyl)-3-methylpiperazin-1-yl)-[3,4′-bipyridin]-2′-yl trifluoromethanesulfonate], the negative logarithm of the IC50 (pIC50) is 5.00 to 6.00.

As for `N#Cc1cc(-c2cccc3c2NC(=O)C3=O)c(C2CC2)nc1N1CCN(C(=O)C2CC2)[C@H](C2CC2)C1` [Compound 513, (R)-2-(4-(cyclopropanecarbonyl)-3-cyclopropylpiperazin-1-yl)-6-cyclopropyl-5-(2,3-dioxoindolin-7-yl)nicotinonitrile], the pIC50 is 6.00 to 6.30. `COCCC(=O)N1CCN(c2nc(C3CC3)c(-c3ccc(N4CCNCC4)nc3)cc2C#N)C[C@H]1C` [Compound 396, (R)-2-cyclopropyl-6-[4-(3-methoxy-propionyl)-3-methyl-piperazin-1-yl]-6′-piperazin-1-yl-[3,3′]bipyridinyl-5-carbonitrile]: the pIC50 was more than 6.30. Same read-out and setting: the value for `C=Cc1cc(-c2c(C3CC3)nc(N3CCN(C(=O)/C=C/CCO)[C@H](C(C)C)C3)c(C#N)c2C)ccn1` [Compound 795, (R,E)-2-cyclopropyl-6-(4-(5-hydroxypent-2-enoyl)-3-isopropylpiperazin-1-yl)-4-methyl-2′-vinyl-3,4′-bipyridine-5-carbonitrile] was more than 6.30; that for `C[C@@H]1CN(c2nc(C3CC3)c(-c3cccc4cnccc34)cc2C#N)CCN1C(=O)CCO` [Compound 402, (R)-6-cyclopropyl-2-(4-(3-hydroxypropanoyl)-3-methylpiperazin-1-yl)-5-(isoquinolin-5-yl)nicotinonitrile] was more than 6.30. Still for that read-out and setting: the value for `N#Cc1cc(-c2cccc3cnccc23)c(C2CC2)nc1N1CCN(C(=O)C2CC2)C(C(F)(F)F)C1` (stereo not shown) [Compound 397, 2-(4-(cyclopropanecarbonyl)-3-(trifluoromethyl)piperazin-1-yl)-6-cyclopropyl-5-(isoquinolin-5-yl)nicotinonitrile] was more than 6.30; that for `N#Cc1cc(-c2ccnc(N)n2)c(C2CC2)nc1N1CCN(C(=O)C2CC2)[C@H](C2CC2)C1` [Compound 507, (R)-5-(2-aminopyrimidin-4-yl)-2-(4-(cyclopropanecarbonyl)-3-cyclopropylpiperazin-1-yl)-6-cyclopropylnicotinonitrile] was 6.00 to 6.30; that for `COCCC(=O)N1CCN(c2nc(C3CC3)c(Nc3ccc(F)cc3)cc2C#N)C[C@H]1C` [Compound 355, (R)-6-cyclopropyl-5-((4-fluorophenyl)amino)-2-(4-(3-methoxypropanoyl)-3-methylpiperazin-1-yl)nicotinonitrile] was 6.00 to 6.30.

For `COCCC(=O)N1CCN(c2nc(C3CC3)c(-c3cncc(C)c3)c(C)c2C#N)C[C@H]1C` [Compound 318], the pIC50 was more than 6.30. The same measure, in the same setting: the value for `COCCC(=O)N1CCN(c2nc(C3CC3)c(-c3cc4ccccc4[nH]3)cc2C#N)C[C@H]1C` [Compound 394, (R)-6-cyclopropyl-5-(1H-indol-2-yl)-2-[4-(3-methoxy-propionyl)-3-methyl-piperazin-1-yl]-nicotinonitrile] was 6.00 to 6.30.
